Publication PMC12584836, “Rubus caesius leaves and stems in antiaging skin care products: antityrosinase, anticollagenase, antimicrobial activity, and transdermal distribution of main phenolic acids” (Pharmaceutical Biology, 2025)
≈ marks a conversion by molar mass, not a printed value.

Key:
Assay in all cases: Antibacterial broth microdilution
Assay type in all cases: cell-based
B. subtilis ATCC6633 = conditions: Bacillus subtilis, standard
Protocol: (§1) Brain-heart infusion broth (BHI, Becton Dickinson) supplemented with 10% bovine serum was used for the cultivation of Streptococcus. […] Corynebacterium diphtheriae ZMF was cultured in Brain-heart infusion broth (BHI, Becton Dickinson) supplemented with 10% bovine serum under aerobic conditions at 37 °C for 72 h. Fungal strains-Candida albicans (ATCC10231), Candida albicans (ATCC26790), Candida [NT]200), Candida krusei (ATCC6258), Candida parapsilosis (ATCC22019) were grown in Sabourauda broth (SB, Becton Dickinson), under aerobic conditions at 37 °C for 72 h. For post-incubation viability assessment, BHI blood agar plates, MH agar plates, and Sabouraud agar plates were used. Active cultures were prepared by transferring cells from stock cultures into appropriate broth, as described above. […] Cultures were then diluted in the same broth to achieve an optical density corresponding to approximately 10^6 colony-forming units per milliliter (CFU/mL) for all bacteria strains except C. acnes and C. diphtheriae ZMF. […] [2014]). The minimum inhibitory concentration (MIC) was determined using the broth microdilution method in 96-well plates. Each well was filled with 100 μL of broth. […] These solutions were serially diluted and added to the first well of each row. Serial twofold dilutions were performed by transferring 100 μL from well to well up to the twelfth well, from which 100 μL was discarded. […] Ampicillin served as the reference standard, with concentrations ranging from 128 to 0.0625 μg/mL. Plates were incubated under the appropriate conditions at 37 °C for […] (Clostridium sp. was incubated anaerobically). MIC values were determined by visual observation and defined as the lowest extract concentration that prevented visible microbial growth. To determine the minimum bactericidal concentration (MBC), 100 μL from wells showing no visible growth were plated on agar media. […] The MBC was defined as the lowest concentration of extracts required to completely eliminate viable microorganisms (Hałasa et al. [2014]).

C. acnes ATCC6919 = conditions: Cutibacterium acnes, standard
Protocol: as §1

C. diphtheriae = conditions: Corynebacterium diphtheriae, standard
Protocol: as §1

M. catarrhalis PCM2340 = conditions: Moraxella catarrhalis, standard
Protocol: as §1

S. epidermidis ATCC14990 = conditions: Staphylococcus epidermidis, standard
Protocol: as §1

S. equinus ATCC15351 = conditions: Streptococcus equinus, standard
Protocol: as §1

[1] = test system: Streptococcus β hemolytic group G; conditions: S. β-hemolytic group G, standard
Protocol: as §1

- MIC (B. subtilis ATCC6633): 0.4 µg/mL (≈ 1.14 µM)
- MIC (C. acnes ATCC6919): 32 µg/mL (≈ 91.6 µM)
- MIC (C. diphtheriae): 16 µg/mL (≈ 45.8 µM)
- MIC (M. catarrhalis PCM2340): 2.5 µg/mL (≈ 7.15 µM)
- MIC (S. epidermidis ATCC14990): 0.3 µg/mL (≈ 0.859 µM)
- MIC (S. equinus ATCC15351): 16 µg/mL (≈ 45.8 µM)
SMILES: CC1(C)S[C@@H]2[C@H](NC(=O)[C@H](N)c3ccccc3)C(=O)N2[C@H]1C(=O)O [Ampicillin, ampicillin]
- MIC [1]: 16 µg/mL (≈ 45.8 µM)
